Values after ≈ are worked out from the molar mass of the structure shown. “Also recorded” adds a separate entry of the source.
Assays:
Escherichia coli K-12 [1] = assay: Titer by cup method on peptone-agar plate; type: cell-based; conditions: crystals; titer of culture filtrate designated as 1 u/ml
Procedure: Sakaguchi flasks (500 ml capacity) for a reciprocating type shaking machine were charged with 125 ml of a culture medium (pH value=7.0) comprising 1% of glucose, 1% of glycerol, 1% of sucrose, 0.5% of oat meal, 2% of soybean meal (Prorich supplied by Ajinomoto K.K.), 1% of pressed yeast (supplied by Oriental Kobo Kogyo K.K.), 0.5% of Casamino acid (supplied by Difco Co.) and 0.1% of calcium carbonate, and the culture medium was sterilized at 120° C. for 20 minutes in an autoclave. The culture medium in each was inoculated with one platinum loop of MG265-CF3 (Fermentation Research Institute Deposit No. 5735), and culturing was carried out for 2 days at 28° C. with shaking at 120 rpm. […] (The titer was determined according to the cup method using Escherichia coli K-12 as a test organism on peptone-agar plate, and the titer of the culture filtrate was designated as 1 u/ml.) The filtrate was passed through a column packed with 500 ml of active carbon powder for chromatography (supplied by Wako Junyaku) to absorb the oxanosine on the active carbon. […]

Salmonella typhi T-63 = assay: Antimicrobial spectrum in 0.5% peptone agar; type: cell-based; conditions: Salmonella enterica, read-out: Minimum Growth Inhibition Concentration
Gram-positive bacteria = assay: Antimicrobial spectrum, summary; type: cell-based; conditions: 0.5% peptone agar; words
[2] = system: Staphylococcus aureus, Smith strain; assay: Antimicrobial spectrum in 0.5% peptone agar; type: cell-based; conditions: read-out: Minimum Growth Inhibition Concentration
[3] = system: Bacillus subtilis NRRLB-558; assay: Antimicrobial spectrum in 0.5% peptone agar; type: cell-based; conditions: NRRLB558, read-out: Minimum Growth Inhibition Concentration
[4] = system: Corynebacterium bovis 1810; assay: Antimicrobial spectrum in 0.5% peptone agar; type: cell-based; conditions: read-out: Minimum Growth Inhibition Concentration
Proteus rettgeri GN 311 = assay: Antimicrobial spectrum in 0.5% peptone agar; type: cell-based; conditions: Providencia rettgeri, GN311, read-out: Minimum Growth Inhibition Concentration
[5] = Acute toxicity in the mouse; type: in vivo; conditions: iv
Sarcina lutea PCI 1001 = assay: Antimicrobial spectrum in 0.5% peptone agar; type: cell-based; conditions: Micrococcus luteus, PCI1001, read-out: Minimum Growth Inhibition Concentration
[6] = system: Escherichia coli ML1629 (multi-resistant strain); assay: Antimicrobial spectrum in 0.5% peptone agar; type: cell-based; conditions: read-out: Minimum Growth Inhibition Concentration
Escherichia coli NIHJ = assay: Antimicrobial spectrum in 0.5% peptone agar; type: cell-based; conditions: read-out: Minimum Growth Inhibition Concentration
[7] = system: Klebsiella pneumoniae PCI 602; assay: Antimicrobial spectrum in 0.5% peptone agar; type: cell-based; conditions: PCI602, read-out: Minimum Growth Inhibition Concentration
Mouse Leukemia L-1210 = assay: Effect against mouse leukemia L-1210, life-prolonging effect; type: in vivo, mouse (female, CDF series); conditions: ip, once each day for 9 days
Procedure: Cells (1×10^5) of leukemia L-1210 were intraperitoneally implanted in each of several groups of 8-week-old female mice of the CDF series (5 mice for each group), a solution of oxanosine in a physiological saline solution was intraperitoneally administered once each day for 9 days, and the carcinostatic effect was evaluated based on the life-prolonging effect (T/C, %).

Proteus vulgaris OX 19 = assay: Antimicrobial spectrum in 0.5% peptone agar; type: cell-based; conditions: OX19, read-out: Minimum Growth Inhibition Concentration
[8] = system: Micrococcus flavis FDA 16; assay: Antimicrobial spectrum in 0.5% peptone agar; type: cell-based; conditions: FDA16, read-out: Minimum Growth Inhibition Concentration
HeLa = assay: Anti-HeLa activity; type: cell-based; conditions: 72 hours' culturing
Procedure: *number of cells after 72 hours' culturing in the presence of oxanosine

Solubility in solvents = type: physicochemical
[9] = system: Pseudomonas aeruginosa A3; assay: Antimicrobial spectrum in 0.5% peptone agar; type: cell-based; conditions: read-out: Minimum Growth Inhibition Concentration
Proteus rettgeri GN 466 = assay: Antimicrobial spectrum in 0.5% peptone agar; type: cell-based; conditions: Providencia rettgeri, GN466, read-out: Minimum Growth Inhibition Concentration
Escherichia coli K-12 [10] = assay: Antimicrobial spectrum in 0.5% peptone agar; type: cell-based; conditions: K12, read-out: Minimum Growth Inhibition Concentration
[11] = system: Mycobacterium smegmatis 607; assay: Antimicrobial spectrum in 0.5% peptone agar; type: cell-based; conditions: Mycolicibacterium smegmatis, read-out: Minimum Growth Inhibition Concentration
Shigella sonnei JS 11746 = assay: Antimicrobial spectrum in 0.5% peptone agar; type: cell-based; conditions: JS11746, read-out: Minimum Growth Inhibition Concentration
[12] = system: Bacillus subtilis PCI 219; assay: Antimicrobial spectrum in 0.5% peptone agar; type: cell-based; conditions: PCI219, read-out: Minimum Growth Inhibition Concentration
[13] = system: Shigella dysenteriae JS 11910; assay: Antimicrobial spectrum in 0.5% peptone agar; type: cell-based; conditions: JS11910, read-out: Minimum Growth Inhibition Concentration
Candida albicans 3147 = assay: Antimicrobial spectrum in 0.5% peptone agar; type: cell-based; conditions: read-out: Minimum Growth Inhibition Concentration
[14] = system: Shigella flexneri 4B JS 11811; assay: Antimicrobial spectrum in 0.5% peptone agar; type: cell-based; conditions: 4BJS11811, read-out: Minimum Growth Inhibition Concentration
[15] = system: Proteus mirabilis IFM OM-9; assay: Antimicrobial spectrum in 0.5% peptone agar; type: cell-based; conditions: IFMOM9, read-out: Minimum Growth Inhibition Concentration
[16] = system: Staphylococcus aureus FDA 209P; assay: Antimicrobial spectrum in 0.5% peptone agar; type: cell-based; conditions: FDA209P, read-out: Minimum Growth Inhibition Concentration
[17] = Antiviral activity (general statement); conditions: words, no test described
[18] = Carcinostatic activity (general statement); conditions: words
[19] = system: Salmonella enteritidis 1891; assay: Antimicrobial spectrum in 0.5% peptone agar; type: cell-based; conditions: Salmonella enterica, read-out: Minimum Growth Inhibition Concentration
Gram-negative bacteria = assay: Antimicrobial spectrum, summary; type: cell-based; conditions: 0.5% peptone agar; words
Serratia marcescens = assay: Antimicrobial spectrum in 0.5% peptone agar; type: cell-based; conditions: read-out: Minimum Growth Inhibition Concentration

In the case of Nc1nc2c(ncn2[C@@H]2O[C@H](CO)[C@@H](O)[C@H]2O)c(=O)o1 [oxanosine], the titer (Escherichia coli K-12 [1]) is reported as 117 u/mg, the MIC (Salmonella typhi T-63) is reported as > 100 µg/mL and the “growth-inhibiting action against Gram-positive bacteria” value (Gram-positive bacteria) is reported as “does not show growth-inhibiting action”. The MIC [2] was > 100 µg/mL, the MIC [3] was > 100 µg/mL and the MIC [4] was > 100 µg/mL. The MIC (Proteus rettgeri GN 311) was > 100 µg/mL, the LD50 ([5]; in vivo) was > 200 mg/kg and the “acute toxicity compared with various known nucleic acid type antibiotic substances” value ([5]; words) was “lower than those of various known nucleic acid type antibiotic substances”. The MIC (Sarcina lutea PCI 1001) was > 100 µg/mL, the MIC [6] was 25 µg/mL (≈ 88 µM) and the MIC (Escherichia coli NIHJ) was > 100 µg/mL. For the same molecule, the MIC [7] was > 100 µg/mL, the “Life-Prolonging Effect (T/C, %)” value (Mouse Leukemia L-1210; 62.5 μg/mouse/day) was 100% and the “Life-Prolonging Effect (T/C, %)” value (Mouse Leukemia L-1210; 125 μg/mouse/day) was 120%. For the same molecule, the “Life-Prolonging Effect (T/C, %)” value (Mouse Leukemia L-1210; 250 μg/mouse/day) was 120%, the “Life-Prolonging Effect (T/C, %)” value (Mouse Leukemia L-1210; 500 μg/mouse/day) was 153% and the “Life-Prolonging Effect (T/C, %)” value (Mouse Leukemia L-1210; 1000 μg/mouse/day) was 160%. For the same molecule, the “life-prolonging effect in leukemia L-1210 tumor-bearing mice” value (Mouse Leukemia L-1210; words) was “has a life-prolonging effect”, the MIC (Proteus vulgaris OX 19) was 25 µg/mL (≈ 88 µM) and the MIC [8] was > 100 µg/mL. The Cells (HeLa; 0.1 mcg/ml) was 11.70 × 10^5 /plate, the Cells (HeLa; 1 mcg/ml) was 10.31 × 10^5 /plate and the Cells (HeLa; 10 mcg/ml) was 8.68 × 10^5 /plate. The Cells (HeLa; 100 mcg/ml) was 1.08 × 10^5 /plate, the inhibition at 0.1 µg/mL (HeLa; Homo sapiens, HeLa, 0.1 mcg/ml, read-out: Percent Inhibition) was 1.76% and the inhibition at 1 µg/mL (HeLa; Homo sapiens, HeLa, 1 mcg/ml, read-out: Percent Inhibition) was 15.3%. The inhibition at 10 µg/mL (HeLa; Homo sapiens, HeLa, 10 mcg/ml, read-out: Percent Inhibition) was 31.2%, the inhibition at 100 µg/mL (HeLa; Homo sapiens, HeLa, 100 mcg/ml, read-out: Percent Inhibition) was 100% and the IC50 (HeLa; Homo sapiens, HeLa) was ~30.9 µg/mL (≈ 109 µM). For the same molecule, the “Solubility in Solvents” value (Solubility in solvents; organic solvents such as ethanol, acetone, ethyl acetate (b147 only), ether, benzene) was “insoluble or only slightly soluble”, the “Solubility in Solvents” value (Solubility in solvents; water, methanol and dimethylsulfoxide) was “Soluble” and the MIC [9] was > 100 µg/mL. The MIC (Proteus rettgeri GN 466) was 12.5 µg/mL (≈ 44 µM), the MIC (Escherichia coli K-12 [10]) was 12.5 µg/mL (≈ 44 µM) and the MIC [11] was > 100 µg/mL. For the same molecule, the MIC (Shigella sonnei JS 11746) was 25 µg/mL (≈ 88 µM), the MIC [12] was > 100 µg/mL and the MIC [13] was 25 µg/mL (≈ 88 µM). The MIC (Candida albicans 3147) was > 100 µg/mL, the MIC [14] was 6.25 µg/mL (≈ 22 µM) and the MIC [15] was 12.5 µg/mL (≈ 44 µM). For the same molecule, the MIC [16] was > 100 µg/mL, the antiviral activity [17] was “has carcinostatic and antiviral activity; also recorded: has carcinostatic and antiviral actions” and the carcinostatic activity [18] was “has carcinostatic and antiviral activity; also recorded: has carcinostatic and antiviral actions”. For the same molecule, the MIC [19] was > 100 µg/mL, the “growth-inhibiting action against Gram-negative bacteria” value (Gram-negative bacteria) was “relatively strong growth-inhibiting action; also recorded: relatively strong inhibitory activity” and the MIC (Serratia marcescens) was > 100 µg/mL.
